Active and inactive are the calls of the source. No cut-off for these calls is given here.
Tests used:
[1] = Cytotoxicity against human HepG2 cells assessed as reduction in cell viability after 48 hrs by WST-1 assay; format: toxicity, cell-based
Plasmodium falciparum [2] = experiment: Antimalarial activity against Plasmodium falciparum 3D7 infected in red blood cells after 96 hrs by SYBR Green I dye based fluorescence assay; format: functional, organism-based, Red blood cell; details: 3D7, Erythrocyte
[3] = Selectivity index, ratio of CC50 for cytotoxicity against human HepG2 cell to IC50 for antimalarial activity against chloroquine-resistant Plasmodium falciparum Dd2 infected in red blood cells; format: toxicity, cell-based; details: read-out: Ratio CC50/IC50
[4] = Selectivity index, ratio of CC50 for cytotoxicity against human HepG2 cell to IC50 for antimalarial activity against Plasmodium falciparum 3D7 infected in red blood cells; format: toxicity, cell-based; details: read-out: Ratio CC50/IC50
Plasmodium falciparum [5] = experiment: Antimalarial activity against chloroquine-resistant Plasmodium falciparum Dd2 infected in red blood cells after 96 hrs by SYBR Green I dye based fluorescence assay; format: functional, organism-based, Red blood cell; details: Dd2, Erythrocyte
[6] = target: T1, Dihydroorotate dehydrogenase (quinone), mitochondrial (Plasmodium falciparum (isolate 3D7)) (UniProt Q08210); experiment: Inhibition of Plasmodium falciparum DHODH
T1 sequence (whole entry): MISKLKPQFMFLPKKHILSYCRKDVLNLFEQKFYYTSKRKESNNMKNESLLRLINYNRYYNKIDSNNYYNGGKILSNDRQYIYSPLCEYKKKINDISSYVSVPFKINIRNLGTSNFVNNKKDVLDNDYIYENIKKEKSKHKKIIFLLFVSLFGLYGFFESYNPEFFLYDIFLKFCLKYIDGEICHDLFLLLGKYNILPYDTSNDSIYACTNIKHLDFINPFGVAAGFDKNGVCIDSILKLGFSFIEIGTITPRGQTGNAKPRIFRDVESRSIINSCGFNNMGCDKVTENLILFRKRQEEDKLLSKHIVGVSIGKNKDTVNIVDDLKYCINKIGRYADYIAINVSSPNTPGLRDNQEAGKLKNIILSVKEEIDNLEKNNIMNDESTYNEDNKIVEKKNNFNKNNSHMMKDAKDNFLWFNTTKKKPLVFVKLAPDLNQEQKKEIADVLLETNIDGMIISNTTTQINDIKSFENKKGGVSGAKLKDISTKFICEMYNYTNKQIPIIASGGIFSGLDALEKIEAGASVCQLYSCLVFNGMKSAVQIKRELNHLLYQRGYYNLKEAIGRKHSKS

[7] = target: T1, Dihydroorotate dehydrogenase (quinone), mitochondrial (Plasmodium falciparum (isolate 3D7)); experiment: Inhibition of Plasmodium falciparum DHODH at 250 uM relative to control

Row | SMILES | CC50 at 48 h [1] [µM] | IC50 (Plasmodium falciparum [2]) [µM] | selectivity ratio [3] | selectivity ratio [4] | IC50 (Plasmodium falciparum [5]) [µM] | inhibition [6] | inhibition [7] [%]
1 | O=C(NC1CC1)c1ccc(N2CCN(c3cccc(O)c3)CC2)nc1 | 36.2 | 4.1 | 5 | 9 | 7.3 |  | 
2 | COc1ccc(N2CCN(c3ccc(C(=O)NC4CC4)cn3)CC2)cc1 |  | 2.9 |  |  | 9.4 |  | 
3 | O=C(NC1CC1)c1ccc(N2CCNCC2)nc1 |  | > 100 |  |  |  |  | 
4 | COc1ccc(CN2CCN(c3ccc(C(=O)NC4CC4)cn3)CC2)cc1 | > 100 | 6.5 | > 8 | > 15 | 13 |  | 
5 | Nc1cccnc1N1CCN(c2ccc(C(=O)NC3CC3)cn2)CC1 |  | 46.4 |  |  |  |  | 
6 | O=C(NC1CC1)c1ccc(N2CCN(C(=O)c3ccccc3)CC2)nc1 |  | > 100 |  |  |  |  | 
7 | O=C(NC1CC1)c1ccc(N2CCN(c3ccc(C(F)(F)F)cn3)CC2)nc1 |  | 1.1 |  |  | 1.6 |  | 
8 | O=C(NC1CC1)c1ccc(N2CCN(c3ccccc3F)CC2)nc1 |  | 1.3 |  |  | 2.3 | inactive | 
9 | O=C(NC1CC1)c1ccc(N2CCN(C(=O)c3ccccn3)CC2)nc1 |  | > 100 |  |  |  |  | 
10 | N#Cc1cccnc1N1CCN(c2ccc(C(=O)NC3CC3)cn2)CC1 | > 100 | 6.7 | > 7 | > 15 | 15 |  | 
11 | O=C(NC1CC1)c1ccc(N2CCN(S(=O)(=O)c3ccccc3)CC2)nc1 |  | 37.2 |  |  |  |  | 
12 | O=C(NC1CC1)c1ccc(N2CCN(c3ncccc3C(F)(F)F)CC2)nc1 | > 100 | 1 | > 23 | > 96 | 4.4 | inactive | 
13 | CN1CCN(c2ccc(C(=O)NC3CC3)cn2)CC1 |  | > 100 |  |  |  |  | 
14 | O=C(NC1CC1)c1ccc(N2CCN(c3ccccc3)CC2)nc1 | > 100 | 6 | > 30 | > 21 | 3.3 |  | 
15 | O=C(NC1CC1)c1ccc(N2CCN(c3ncccc3[N+](=O)[O-])CC2)nc1 | 51.2 | 5.7 | 5 | 9 | 10.2 |  | 
16 | O=C(NC1CC1)c1ccc(N2CCN(c3ncccn3)CC2)nc1 |  | 5.6 |  |  | 10.5 |  | 
17 | O=C(NC1CC1)c1ccc(N2CCN(c3ccccc3Cl)CC2)nc1 |  | 0.4 |  |  | 0.7 |  | 
18 | CCN(CC)CCCC(C)Nc1ccnc2cc(Cl)ccc12 (stereo unspecified) [CHLOROQUINE] |  | 10.2 |  |  |  |  | 
19 | O=C(NC1CC1)c1ccc(N2CCN(c3cnccn3)CC2)nc1 | > 100 | 2.8 | > 28 | > 36 | 3.6 | inactive | 
20 | O=C(NC1CC1)c1ccc(N2CCN(c3ccccc3C(F)(F)F)CC2)nc1 | > 100 | 1.7 | > 200 | > 59 | 0.5 | inactive | 20
21 | O=C(NC1CC1)c1ccc(N2CCN(Cc3ccccc3)CC2)nc1 | 12.1 | 10.9 | 2 | 1 | 6.1 |  | 
22 | O=C(NC1CC1)c1ccc(N2CCN(c3ccccn3)CC2)nc1 | > 100 | 13.9 |  | > 7 |  |  | 
23 | Cc1ccccc1N1CCN(c2ccc(C(=O)NC3CC3)cn2)CC1 | > 100 | 1 | > 143 | > 100 | 0.7 |  | 30

From ChEMBL document CHEMBL5579847, “Synthesis, design, and optimization of a potent and selective series of pyridylpiperazines as promising antimalarial agents” (Eur J Med Chem, 2024)
